The text below walks through data of PubChem BioAssay (NCI).

The structures appear in SMILES notation.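 Grown in 96-well plates, cells were treated for 48 hours with each compound at five concentrations. Insufficient inhibition: endpoint recorded as highest concentration tested. GI50 is the concentration that inhibits growth by half. TGI denotes the concentration required for complete inhibition of growth.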 Some results are limits rather than exact numbers.

Test systems include 786-0 renal; A498 renal; HT29 colon; NCI-H460 lung; RPMI-8226 leukemia; SF-539 CNS; SK-MEL-28 melanoma; T-47D breast; UACC-257 melanoma; UACC-62 melanoma.
Holding throughout (experiment): NCI tumour cell line growth inhibition, 48 h

On to `Cl.Fc1c[c-]c(-c2ccccn2)c(F)c1.[Pt].c1ccc(P(c2ccccc2)C([PH+](c2ccccc2)c2ccccc2)[PH+](c2ccccc2)c2ccccc2)cc1`, for which the GI50 in the test with 786-0 renal is 3.34 µM; in the test on A498 renal, 2.59 µM; with HT29 colon, 3.23 µM; in the test on NCI-H460 lung it was 3.08 µM; in the test with RPMI-8226 leukemia, 1.68 µM; with SF-539 CNS, 3.18 µM. Moreover, the GI50 was 5.02 µM in the test on SK-MEL-28 melanoma, 2.25 µM in the test with T-47D breast, 2.75 µM in the test on UACC-257 melanoma and 3.03 µM in the test on UACC-62 melanoma. In addition, the TGI turned out to be 20.6 µM with 786-0 renal; 7.47 µM in the test with A498 renal; 21.6 µM with HT29 colon; 11.5 µM in the test on NCI-H460 lung; 5.51 µM in the test on RPMI-8226 leukemia; 11.3 µM in the test on SF-539 CNS. The TGI with SK-MEL-28 melanoma worked out at 26.9 µM; with T-47D breast, 8.5 µM; in the test on UACC-257 melanoma it was 8.09 µM; with UACC-62 melanoma it was 18 µM.
`Cc1ccc(C(SCC(N)C(=O)O)(c2ccc(C)cc2)c2ccc(C)cc2)cc1` (stereo not given): the GI50 was 4.93 µM with 786-0 renal; 4.04 µM with A498 renal; 3.55 µM with HT29 colon; 2.3 µM in the test with NCI-H460 lung; 2.27 µM in the test on RPMI-8226 leukemia; 1.22 µM in the test on SF-539 CNS. Also, the GI50 in the test on SK-MEL-28 melanoma was 7.47 µM; in the test with T-47D breast, 3.5 µM; in the test on UACC-257 melanoma, 6.18 µM; in the test on UACC-62 melanoma, 1.03 µM. In addition, the TGI in the test with 786-0 renal was 30.1 µM; in the test on A498 renal, 14.6 µM; in the test on HT29 colon it was > 34.8 µM; with NCI-H460 lung it was 12 µM; with RPMI-8226 leukemia, 12.5 µM; with SF-539 CNS, 7.5 µM. Moreover, the TGI came out at 22.7 µM in the test on SK-MEL-28 melanoma, 21.9 µM with T-47D breast, 26.7 µM in the test with UACC-257 melanoma and 13.8 µM in the test on UACC-62 melanoma.
For `CCCCCCCCCCCCCC1=NCCN1CCO`, the GI50 in the test on 786-0 renal was 5.17 µM; in the test with A498 renal, 2.75 µM; with HT29 colon it was 2.81 µM; with NCI-H460 lung it was 2.13 µM; with RPMI-8226 leukemia, 6.5 µM; in the test with SF-539 CNS, 1.95 µM. Also, the GI50 in the test on SK-MEL-28 melanoma was 1.99 µM; in the test on T-47D breast it was 4.57 µM; in the test on UACC-257 melanoma it was 12.6 µM; with UACC-62 melanoma, 1.96 µM. For the same compound, the TGI is 11.2 µM with 786-0 renal; 14.6 µM in the test on A498 renal; > 28.6 µM in the test on HT29 colon; 4.63 µM in the test with NCI-H460 lung; > 81.5 µM in the test with RPMI-8226 leukemia; 3.94 µM in the test with SF-539 CNS. The TGI in the test with SK-MEL-28 melanoma stood at 4.02 µM; in the test on T-47D breast, 13.1 µM; in the test on UACC-257 melanoma, 36.9 µM; with UACC-62 melanoma, 3.95 µM.
With `CN(Cc1cc(Br)cc(Br)c1O)Cc1cc(Br)cc(Br)c1O`, the GI50 is 1.42 µM in the test on 786-0 renal; 4.08 µM in the test on A498 renal; 6.23 µM in the test on HT29 colon; 0.557 µM in the test with NCI-H460 lung; 2.77 µM in the test with RPMI-8226 leukemia; 2.61 µM with SF-539 CNS. The GI50 in the test on SK-MEL-28 melanoma was 10.9 µM; with T-47D breast it was 2.27 µM; in the test on UACC-257 melanoma, 2.44 µM; in the test with UACC-62 melanoma, 1.8 µM. Also, the TGI with 786-0 renal was found to be 14.6 µM; in the test on A498 renal, 18.7 µM; in the test with HT29 colon, 19.9 µM; with NCI-H460 lung, 13.2 µM; in the test on RPMI-8226 leukemia, 47.9 µM; in the test on SF-539 CNS, 20.2 µM. Also, the TGI in the test with SK-MEL-28 melanoma turned out to be 24.6 µM; with T-47D breast, 23.6 µM; in the test on UACC-257 melanoma it was 11.5 µM; in the test on UACC-62 melanoma it was 11.8 µM.
As to `COC(=O)[C@]12CC[C@@H](C)[C@H](C)[C@@H]1C1=CC[C@@H]3[C@@]4(C)C(C=O)=C[C@@](C)(COC(C)=O)C4=CC[C@@]3(C)[C@]1(C)CC2`, the GI50 in the test with 786-0 renal is 3.5 µM; in the test with A498 renal it was 10.8 µM; in the test on HT29 colon, 3.17 µM; in the test on NCI-H460 lung it was 3.98 µM; with RPMI-8226 leukemia it was 2 µM; in the test with SF-539 CNS, 10.5 µM. The GI50 is 3.22 µM in the test on SK-MEL-28 melanoma, 3.79 µM in the test on T-47D breast, 4.19 µM in the test with UACC-257 melanoma and 4.11 µM in the test on UACC-62 melanoma. For the same compound, the TGI came to 15 µM in the test with 786-0 renal; 24 µM in the test on A498 renal; 11 µM with HT29 colon; 15.2 µM in the test on NCI-H460 lung; 5.7 µM with RPMI-8226 leukemia; 26 µM in the test with SF-539 CNS. Besides, the TGI in the test with SK-MEL-28 melanoma is 12.3 µM; in the test on T-47D breast, 27.3 µM; in the test on UACC-257 melanoma, 17.2 µM; in the test with UACC-62 melanoma, 18.1 µM.
On to `O=[N+]([O-])c1ccc(Sc2ncnc3nc[nH]c23)c2nonc12`, for which the GI50 was 1.74 µM in the test with 786-0 renal; 8.46 µM in the test on A498 renal; 3.88 µM in the test on HT29 colon; 9.73 µM in the test on NCI-H460 lung; 2.92 µM in the test on RPMI-8226 leukemia; 4.53 µM in the test with SF-539 CNS. In addition, the GI50 in the test on SK-MEL-28 melanoma was 5.79 µM; in the test with T-47D breast it was 2.09 µM; with UACC-257 melanoma, 4.52 µM; with UACC-62 melanoma, 4.91 µM. Moreover, the TGI in the test on 786-0 renal turned out to be 5.16 µM; with A498 renal, 20.5 µM; in the test on HT29 colon, 20.6 µM; in the test with NCI-H460 lung it was 35.2 µM; with RPMI-8226 leukemia, 48 µM; in the test on SF-539 CNS, 21.5 µM. The TGI with SK-MEL-28 melanoma is 18.5 µM; with T-47D breast, > 100 µM; in the test on UACC-257 melanoma, 18.7 µM; with UACC-62 melanoma it was 17.3 µM.
Take `COC1CCN(C(=O)c2cc(Cc3n[nH]c(=O)c4ccccc34)ccc2F)CC1`: the GI50 with 786-0 renal was > 100 µM; in the test on A498 renal it was > 41.2 µM; with HT29 colon it was > 100 µM; in the test on NCI-H460 lung, 25.6 µM; in the test with RPMI-8226 leukemia, 60.9 µM; with SF-539 CNS it was > 100 µM. Also, the GI50 with SK-MEL-28 melanoma is > 100 µM; with T-47D breast, 53.6 µM; in the test with UACC-257 melanoma it was > 83.2 µM; with UACC-62 melanoma, 40 µM. In addition, the TGI with 786-0 renal, with A498 renal, in the test on HT29 colon, with NCI-H460 lung, in the test on RPMI-8226 leukemia and with SF-539 CNS was > 100 µM each time. Also, the TGI in the test on SK-MEL-28 melanoma, with T-47D breast, in the test on UACC-257 melanoma and in the test on UACC-62 melanoma was > 100 µM throughout.
